Legend:
[1] = molecular target: NAMPT (Homo sapiens, UniProt P43490); experiment: Time-Resolved Fluorescence Resonance Energy Transfer (TR-FRET) Binding Assay of NAMPT with PRPP; settings: 2 nM NAMPT, 2 nM probe, 200 uM PRPP and 2.5 mM ATP, equilibrated 16 hours
Method in brief: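 Final mix: 2 nM NAMPT, 2 nM probe, 1 nM Tb-anti-His antibody, 200 uM PRPP, 2.5 mM ATP, 2% DMSO in 1× assay buffer. Equilibrated 16 hours before TR-FRET read, allowing possible enzymatic modification of compounds.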

[2] = molecular target: NAMPT (human, recombinant, C-terminally His-tagged) (Homo sapiens, UniProt P43490); experiment: Time-Resolved Fluorescence Resonance Energy Transfer (TR-FRET) Binding Assay of NAMPT; settings: 6.8 nM NAMPT, 200 nM probe, equilibrated 3 hours, absence of substrates
NAMPT (human, recombinant, C-terminally His-tagged), sequence (P43490 whole entry): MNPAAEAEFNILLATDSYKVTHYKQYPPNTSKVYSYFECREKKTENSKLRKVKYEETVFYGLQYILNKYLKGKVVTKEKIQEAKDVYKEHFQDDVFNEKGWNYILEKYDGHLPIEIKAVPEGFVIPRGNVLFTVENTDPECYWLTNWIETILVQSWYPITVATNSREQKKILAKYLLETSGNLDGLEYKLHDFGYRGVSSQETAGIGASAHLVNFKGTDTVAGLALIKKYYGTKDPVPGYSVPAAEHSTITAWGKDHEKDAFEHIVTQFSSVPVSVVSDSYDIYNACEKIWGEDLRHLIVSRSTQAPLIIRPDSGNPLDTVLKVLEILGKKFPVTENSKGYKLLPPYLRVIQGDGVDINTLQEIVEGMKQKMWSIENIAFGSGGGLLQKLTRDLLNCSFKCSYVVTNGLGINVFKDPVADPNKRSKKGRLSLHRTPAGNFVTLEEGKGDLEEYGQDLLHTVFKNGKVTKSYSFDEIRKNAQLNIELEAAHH
Method in brief: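 Recombinant C-terminally His-tagged human NAMPT (6.8 nM) incubated 3 h at room temperature with 200 nM Oregon Green 488–labelled nicotinamide-competitive probe and 1 nM Tb-anti-His antibody in HEPES pH 7.5, 2% DMSO. TR-FRET ratio Em520/Em495 normalized to controls; IC50 from four-parameter logistic fit.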

NAMPT, sequence (P43490 whole entry): as above

CCC(C)(C)CN1CCC(c2ccc(NC(=O)C3CN(c4cccnc4)C3)cc2)CC1 [Example 89, N-{4-[1-(2,2-dimethylbutyl)piperidin-4-yl]phenyl}-1-(pyridin-3-yl)azetidine-3-carboxamide] showed an IC50 [1] of 0.647 nM and an IC50 [2] of 2000 nM.

Work on CCC(C)CC(=O)N1CCC(c2ccc(NC(=O)C3CN(c4cccnc4)C3)cc2)CC1 (centres unmarked) [Example 99, N-{4-[1-(3-methylpentanoyl)piperidin-4-yl]phenyl}-1-(pyridin-3-yl)azetidine-3-carboxamide] yielded an IC50 [1] of 0.169 nM and an IC50 [2] of 13.5 nM.

Molecule CCCCC(=O)N1CC(Oc2ccc(NC(=O)C3CN(c4ccnnc4)C3)cc2)C1 [Example 210, N-{4-[(1-pentanoylazetidin-3-yl)oxy]phenyl}-1-(pyridazin-4-yl)azetidine-3-carboxamide] has an IC50 [1] of 38.3 nM and an IC50 [2] of 31.7 nM.

For O=C(Nc1ccc(C2CCN(C(=O)Cc3ccc(Cl)c(Cl)c3)CC2)cc1)C1CN(c2cccnn2)C1 [Example 374, N-(4-{1-[(3,4-dichlorophenyl)acetyl]piperidin-4-yl}phenyl)-1-(pyridazin-3-yl)azetidine-3-carboxamide], the IC50 [1] was 0.973 nM and the IC50 [2] was 23.9 nM.

With Cc1ncccc1N1CC(C(=O)Nc2ccc(C3CCN(C(=O)C(C)(C)O)CC3)cc2)C1 [Example 71, N-{4-[1-(2-hydroxy-2-methylpropanoyl)piperidin-4-yl]phenyl}-1-(2-methylpyridin-3-yl)azetidine-3-carboxamide] the IC50 [1] was 14.6 nM and the IC50 [2] was 41.2 nM.

CCC(C)CC(=O)N1CCC(Oc2ccc(NC(=O)C3CN(c4cccnc4)C3)cc2)CC1 (centres unmarked) [Example 38, N-(4-{[1-(3-methylpentanoyl)piperidin-4-yl]oxy}phenyl)-1-(pyridin-3-yl)azetidine-3-carboxamide] gave an IC50 [1] of 0.9 nM and an IC50 [2] of 46.5 nM.

With O=C(Nc1ccc(OC2CN(C(=O)C(F)(F)c3ccccc3)C2)cc1)C1CN(c2ccnnc2)C1 [Example 201, N-[4-({1-[difluoro(phenyl)acetyl]azetidin-3-yl}oxy)phenyl]-1-(pyridazin-4-yl)azetidine-3-carboxamide] the IC50 [1] was 18.2 nM and the IC50 [2] was 12.1 nM.

In the case of COCC(=O)N1CCC(c2ccc(NC(=O)C3CN(c4cccnn4)C3)cc2)CC1 [Example 333, N-{4-[1-(methoxyacetyl)piperidin-4-yl]phenyl}-1-(pyridazin-3-yl)azetidine-3-carboxamide], the IC50 [1] is reported as 0.631 nM and the IC50 [2] is reported as 50.9 nM.

O=C(Nc1ccc(OC2CCN(C(=O)Cc3cccc(F)c3)CC2)cc1)C1CN(c2ccnnc2)C1 [Example 288, N-[4-({1-[(3-fluorophenyl)acetyl]piperidin-4-yl}oxy)phenyl]-1-(pyridazin-4-yl)azetidine-3-carboxamide] gave an IC50 [1] of 19.5 nM and an IC50 [2] of 44.9 nM.

With CCOCCC(=O)N1CCC(c2ccc(NC(=O)C3CN(c4cccnn4)C3)cc2)CC1 [Example 380, N-{4-[1-(3-ethoxypropanoyl)piperidin-4-yl]phenyl}-1-(pyridazin-3-yl)azetidine-3-carboxamide] the IC50 [1] was 0.883 nM and the IC50 [2] was 109 nM.

CC(C)C(=O)N1CC(Oc2ccc(NC(=O)C3CN(c4ccnnc4)C3)cc2)C1 [Example 264, N-(4-{[1-(2-methylpropanoyl)azetidin-3-yl]oxy}phenyl)-1-(pyridazin-4-yl)azetidine-3-carboxamide] was tested, and the IC50 [1] was 13.4 nM and the IC50 [2] was 52.8 nM.

With CC(C)C(=O)N1CCC(c2ccc(NC(=O)C3CN(c4cccnn4)C3)cc2)CC1 [Example 147, N-{4-[1-(2-methylpropanoyl)piperidin-4-yl]phenyl}-1-(pyridazin-3-yl)azetidine-3-carboxamide] the IC50 [1] was 1.47 nM and the IC50 [2] was 34.6 nM.

Molecule O=C(Nc1ccc(OC2CCN(C(=O)[C@@H]3CCCO3)CC2)cc1)[C@H]1CCN(c2cccnc2)C1 [Example 13, (3S)-1-(pyridin-3-yl)-N-[4-({1-[(2S)-tetrahydrofuran-2-ylcarbonyl]piperidin-4-yl}oxy)phenyl]pyrrolidine-3-carboxamide] has an IC50 [1] of 2.88 nM and an IC50 [2] of 858 nM.

From patent US8975398B2, “NAMPT inhibitors” (AbbVie Inc., priority 2012, dated 2015)
